In brackets after ≈: the same amount, converted by molar mass. Activity calls are given as the source filed them. No cut-off for these calls is given here.
Legend:
HMC3 = test: Cytotoxicity against human HMC3 cells assessed as reduction in cell viability at 0.1 to 30 uM incubated for 48 hrs by acridine orange staining based microplate reader analysis; type: toxicity; conditions: hmc3, 48 h, dose 0.1-30 µM
Mus musculus [1] = test: Antihyperalgesic activity in PGE2-induced wild type female CD-1 mouse assessed as increase in response latency at 60 mg/kg, sc and measured by paw pressure test; type: functional, organism-based
Mus musculus [2] = test: Antiallodynic activity in capsaicin-induced wild-type female CD-1 mouse at 5 to 30 mg/kg, sc measured after 45 mins relative to control; type: functional; conditions: dose 5-30 mg/kg, 0.75 h
Mus musculus [3] = test: Antihyperalgesic activity in PGE2-induced S1R knockout mouse at 60 mg/kg administered subcutaneously; type: functional, organism-based; conditions: route sc
Mus musculus [4] = test: Antiallodynic activity in capsaicin-induced wild-type female CD-1 mouse assessed as maximum antiallodynic effect at 30 mg/kg, sc co-administered with PRE-084 measured after 45 mins; type: functional, organism-based
Mus musculus [5] = test: Antiallodynic activity in capsaicin-induced wild-type female CD-1 mouse administered subcutaneously and measured after 45 min; type: functional, organism-based; conditions: route sc
Mus musculus [6] = test: Antiallodynic activity in capsaicin-induced wild-type female CD-1 mouse assessed as maximum antiallodynic effect administered subcutaneously and co-administered with PRE-084 measured after 45 mins relative to control; type: functional; conditions: route sc, 0.75 h
[7] = molecular target: T1, Sigma non-opioid intracellular receptor 1 (Homo sapiens, UniProt Q99720)
T1 sequence (Q99720 whole entry): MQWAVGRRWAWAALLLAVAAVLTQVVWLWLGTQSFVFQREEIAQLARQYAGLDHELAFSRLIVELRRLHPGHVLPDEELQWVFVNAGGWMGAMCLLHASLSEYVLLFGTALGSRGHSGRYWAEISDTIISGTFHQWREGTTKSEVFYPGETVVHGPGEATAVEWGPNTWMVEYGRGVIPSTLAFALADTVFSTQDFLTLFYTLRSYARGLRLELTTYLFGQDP
Description: Binding affinity to S1R (unknown origin) assessed as inhibition constant

[8] = molecular target: T1, Sigma non-opioid intracellular receptor 1; test: Displacement of [3H]-(+)-PTZ from S1R (unknown origin) assessed as inhibition constant by radioligand binding assay
[9] = molecular target: Sigma intracellular receptor 2 (Homo sapiens, UniProt Q5BJF2); test: Binding affinity to S2R (unknown origin) assessed as inhibition constant
Chain of Sigma intracellular receptor 2 (Q5BJF2 whole entry): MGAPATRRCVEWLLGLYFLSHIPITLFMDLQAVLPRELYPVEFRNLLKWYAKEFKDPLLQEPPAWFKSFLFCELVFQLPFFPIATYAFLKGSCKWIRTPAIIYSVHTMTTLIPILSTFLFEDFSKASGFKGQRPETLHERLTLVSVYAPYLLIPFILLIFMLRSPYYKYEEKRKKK

[10] = Cytotoxicity against human WS1 cells assessed as reduction in cell viability incubated for 48 hrs by acridine orange staining based microplate reader analysis; type: toxicity; conditions: ws1, 48 h
Mus musculus [11] = test: Antiallodynic activity in capsaicin-induced wild-type female CD-1 mouse assessed as maximum antiallodynic effect at 10 mg/kg, sc co-administered with PRE-084 measured after 45 mins; type: functional, organism-based
[12] = Stability of compound in phosphate buffer at pH 7.4 assessed as half life; type: physicochemical
Mus musculus [13] = test: Antiallodynic activity in capsaicin-induced wild-type female CD-1 mouse at 5 to 10 mg/kg, sc measured after 45 mins; type: functional, organism-based; conditions: dose 5-10 mg/kg
Mus musculus [14] = test: Antihyperalgesic activity in PGE2-induced S1R knockout mouse at 10 mg/kg administered subcutaneously; type: functional, organism-based; conditions: route sc
Mus musculus [15] = test: Antihyperalgesic activity in PGE2-induced wild type female CD-1 mouse assessed as increase in response latency at 10 mg/kg, sc and measured by paw pressure test; type: functional, organism-based
Mus musculus [16] = test: Antiallodynic activity in capsaicin-induced wild-type female CD-1 mouse at 10 mg/kg, sc measured after 45 mins relative to control; type: functional; conditions: 0.75 h
[17] = Octanol/water partition coefficient, log P of the compound; type: physicochemical
[18] = Lipophilicity, log D of the compound in Octanol/PBS buffer at pH 7.4 at 5 to 150 uM by UV-Vis spectrophotometric analysis; type: physicochemical; conditions: dose 5-150 µM
[19] = molecular target: Voltage-gated inwardly rectifying potassium channel KCNH2 (Homo sapiens, UniProt Q12809); test: Inhibition of hERG in CHO-K1 cells; type: toxicity, cell-based
Chain of Voltage-gated inwardly rectifying potassium channel KCNH2 (Q12809 whole entry): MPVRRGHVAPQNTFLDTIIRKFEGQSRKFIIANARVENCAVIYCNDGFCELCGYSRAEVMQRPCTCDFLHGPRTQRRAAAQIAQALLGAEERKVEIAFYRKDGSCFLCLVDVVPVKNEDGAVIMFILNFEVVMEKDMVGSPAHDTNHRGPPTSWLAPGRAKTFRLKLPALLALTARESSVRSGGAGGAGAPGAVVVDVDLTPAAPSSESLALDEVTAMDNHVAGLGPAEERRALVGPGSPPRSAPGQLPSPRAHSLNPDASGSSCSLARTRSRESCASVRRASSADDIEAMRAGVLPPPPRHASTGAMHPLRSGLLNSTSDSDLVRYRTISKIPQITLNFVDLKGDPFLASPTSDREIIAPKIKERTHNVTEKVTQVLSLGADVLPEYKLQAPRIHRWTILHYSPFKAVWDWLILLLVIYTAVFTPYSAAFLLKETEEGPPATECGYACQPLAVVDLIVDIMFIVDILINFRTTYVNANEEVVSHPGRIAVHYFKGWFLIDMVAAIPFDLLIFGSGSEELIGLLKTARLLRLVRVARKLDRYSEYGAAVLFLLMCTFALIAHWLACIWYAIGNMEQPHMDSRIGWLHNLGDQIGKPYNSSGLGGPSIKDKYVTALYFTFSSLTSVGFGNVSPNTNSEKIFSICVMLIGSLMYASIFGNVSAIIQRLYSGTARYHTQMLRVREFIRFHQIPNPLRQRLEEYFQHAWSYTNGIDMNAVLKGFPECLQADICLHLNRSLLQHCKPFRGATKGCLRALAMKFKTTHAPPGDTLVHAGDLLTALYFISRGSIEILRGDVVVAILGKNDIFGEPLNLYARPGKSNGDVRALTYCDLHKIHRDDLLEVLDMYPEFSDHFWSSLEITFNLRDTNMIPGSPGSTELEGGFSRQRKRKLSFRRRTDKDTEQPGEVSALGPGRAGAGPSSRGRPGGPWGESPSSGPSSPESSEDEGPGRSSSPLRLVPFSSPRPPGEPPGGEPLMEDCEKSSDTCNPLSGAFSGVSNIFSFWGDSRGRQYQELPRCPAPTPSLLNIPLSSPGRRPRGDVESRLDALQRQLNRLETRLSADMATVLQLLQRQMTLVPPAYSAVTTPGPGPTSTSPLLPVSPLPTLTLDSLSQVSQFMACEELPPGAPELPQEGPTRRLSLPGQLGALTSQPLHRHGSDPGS

[20] = Aqueous solubility of compound by UHPLC-PDA analysis; type: physicochemical; conditions: buffer
Mus musculus [21] = test: Antiallodynic activity in capsaicin-induced wild-type female CD-1 mouse at 2 to 10 mg/kg, sc measured after 45 mins; type: functional, organism-based; conditions: dose 2-10 mg/kg
[22] = Lipophilicity, log D of the compound at pH 7.4; conditions: buffer
[23] = Lipophilicity, log P of the compound; type: physicochemical; conditions: octanol/water

In the case of `CC(C)=CCN1CC[C@@]2(C)c3cc(O)ccc3C[C@@H]1[C@@H]2C`, the Activity (HMC3) is reported as “Non-toxic”.
For `Cc1cc(OCCN2CCOCC2)nn1-c1ccc2ccccc2c1.Cl`, the Activity (Mus musculus [1]) was “Active”, the Activity (Mus musculus [2]) was 100% and the Activity (Mus musculus [3]) was “inactive”. The Activity (Mus musculus [4]) was “Active”, the Activity (Mus musculus [5]) was “Dose-dependent-effect” and the Activity (Mus musculus [6]) was 100%.
For `CN1CCN(CCc2ccc(Cl)c(Cl)c2)CC1`, the Activity (HMC3) was “Non-toxic”, the Ki [7] was 14 nM and the Ki [8] was 14 nM. The Ki [9] was 6.5 nM.
Work on `CCN(CC)C(=O)C(c1ccccc1)N(C)C1CCN(CCc2ccccc2)CC1` (racemic) yielded a Ki [8] of 108 nM.
In the case of `CCOC(=O)C(c1ccccc1)N(C)C1CCN(Cc2ccccc2)CC1` (racemic), the Activity [10] is reported as “Non-toxic”, the Activity (Mus musculus [11]) is reported as “Active” and the half-life [12] is reported as 95.4 min. For the same molecule, the Activity (HMC3) was “Non-toxic”, the Activity (Mus musculus [13]) was “Active” and the Activity (Mus musculus [14]) was “inactive”. The Activity (Mus musculus [15]) was “Active”, the Activity (Mus musculus [5]) was “Dose-dependent-effect” and the Activity (Mus musculus [16]) was 100%. The logP [17] was 1.79, the logD at up to 150 µM [18] was 1.72 and the IC50 [19] was 1600 nM. The solubility [20] was 1870 µg/mL (≈ 5.1 mM).
In the case of `CCOC(=O)C(c1ccccc1)N(C)C1CCN(CCc2ccccc2)CC1` (racemic), the Activity (Mus musculus [11]) is reported as “Active”, the Activity (HMC3) is reported as “Non-toxic” and the Activity (Mus musculus [14]) is reported as “inactive”. For the same molecule, the Activity (Mus musculus [15]) was “Active”, the Activity (Mus musculus [5]) was “Dose-dependent-effect” and the Ki [8] was 9.9 nM. The Activity (Mus musculus [16]) was 100% and the Activity (Mus musculus [21]) was “Active”.
`COc1cc2c(cc1OC)C(=O)C(CC1CCN(Cc3ccccc3)CC1)C2` (configuration not stated) [DONEPEZIL] gave a Ki [7] of 15 nM.
`O=C(CCCN1CCC(O)(c2ccc(Cl)cc2)CC1)c1ccc(F)cc1` [HALOPERIDOL] showed a logD [22] of 3.99 and a logP [23] of 4.03.
`COc1ccc(CCN2CCN(CCCc3ccccc3)CC2)cc1OC` [[11C]SA4503] showed a Ki [9] of 90 nM.
